The target in test [1] is BTK enzyme (recombinant full-length BTK, hBTK) (Homo sapiens (Human), UniProt Q06187). Kind of test: BTK enzymatic activity LANCE TR-FRET assay. Type of test: biochemical. The note with it: 50 pM hBTK, 25 μM ATP, 2 μM biotin-A5-peptide; compound range 1 μM to 0.017 nM; read-out: BTK binding IC50. For orientation: Time-resolved FRET reads energy transfer from a long-lived donor to a nearby acceptor.

For test [2], the system named is adenosine uptake into HeLa cells. Kind of test: [3H]Adenosine uptake assay in HeLa cells. The class given is cell-based. The note with it: [3H]adenosine accumulation in HeLa cells, compound range 10 μM to 0.032 nM, read-out: ADU inhibition IC50. In short, it runs like this:
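IC50 came from a 4-parameter fit of counts per second over a ten-point, 1:3 titration (final 10 µM down to […]). Compound was applied 30 min at ambient temperature in HBSS/5% FBS before a 500 nM [3H]adenosine solution was added; uptake ran 60 min, read by Cytostar-T proximity scintillation.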

This passage reports IC50 results from US10214546B2, “Btk inhibitors” (MERCK SHARP & DOHME CORP., priority 2014, dated 2019).

Like-named read-outs stand apart in the source and are kept apart here.

Sequence of BTK enzyme (recombinant full-length BTK, hBTK) (Q06187 whole entry): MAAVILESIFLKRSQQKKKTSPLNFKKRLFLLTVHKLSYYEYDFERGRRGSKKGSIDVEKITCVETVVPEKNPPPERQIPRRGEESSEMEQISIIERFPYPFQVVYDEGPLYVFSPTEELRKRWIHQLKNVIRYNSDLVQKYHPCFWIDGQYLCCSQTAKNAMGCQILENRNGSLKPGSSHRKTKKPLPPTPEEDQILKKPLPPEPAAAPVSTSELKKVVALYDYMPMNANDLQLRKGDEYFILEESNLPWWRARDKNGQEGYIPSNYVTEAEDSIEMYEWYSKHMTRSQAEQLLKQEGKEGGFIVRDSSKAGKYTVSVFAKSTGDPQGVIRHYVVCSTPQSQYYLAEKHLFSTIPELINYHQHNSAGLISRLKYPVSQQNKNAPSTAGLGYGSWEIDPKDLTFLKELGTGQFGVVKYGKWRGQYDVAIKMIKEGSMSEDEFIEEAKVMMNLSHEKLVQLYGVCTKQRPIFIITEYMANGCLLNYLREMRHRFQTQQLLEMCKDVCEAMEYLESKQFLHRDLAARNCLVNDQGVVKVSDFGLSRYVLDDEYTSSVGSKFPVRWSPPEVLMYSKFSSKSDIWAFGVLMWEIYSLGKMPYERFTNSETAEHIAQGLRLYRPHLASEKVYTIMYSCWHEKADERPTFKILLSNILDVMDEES

Take `Cc1cccc([C@@](C)(O)c2ccc(-c3nc([C@@H]4CC[C@H]5CCC(=O)N5C4)n4ccnc(N)c34)cc2)c1` [Example 53, (6R,8aS)-6-(8-amino-1-{4-[(1S)-1-hydroxy-1-(3-methylphenyl)ethyl]phenyl}imidazo[1,5-a]pyrazin-3-yl)hexahydroindolizin-3(2H)-one]: the IC50 in test [1] came out at 6.5 nM; in test [2] (Homo sapiens, HeLa) it was 671 nM.

Consider `CC(O)(c1cccc(C(F)(F)F)c1)c1ccc(-c2nc([C@@H]3CC[C@H]4CCC(=O)N4C3)n3ccnc(N)c23)cc1F` (stereo partly drawn) [Example 54, (6R,8aS)-6-[8-amino-1-(3-fluoro-4-{1-hydroxy-1-[3-(trifluoromethyl)phenyl]ethyl}phenyl)imidazo [1,5-a]pyrazin-3-yl]hexahydroindolizin-3(2H)-one], for which the IC50 was 1000 nM in test [1] and 473 nM in test [2].

Turning to `CCC(O)(c1ccc(-c2nc([C@@H]3CC[C@H]4CCC(=O)N4C3)n3ccnc(N)c23)cc1)c1cccc(C(F)(F)F)c1` (stereo partly drawn) [Example 55, (6R,8aS)-6-[8-amino-1-(4-{1-hydroxy-1-[3-(trifluoromethyl)phenyl]propyl}phenyl)imidazo [1,5-a]pyrazin-3-yl]hexahydroindolizin-3(2H)-one], the IC50 in test [1] came out at 1000 nM; in test [2], 400 nM.

For the molecule `C[C@](O)(c1ccc(-c2nc([C@@H]3CC[C@H]4CCC(=O)N4C3)n3ccnc(N)c23)cc1)c1cccc(OC(F)(F)F)c1` [Example 56, (6R,8aS)-6-[8-amino-1-(4-{(1S)-1-hydroxy-1-[3-(trifluoromethoxy)phenyl]ethyl}phenyl)imidazo [1,5-a]pyrazin-3-yl]hexahydroindolizin-3(2H)-one], the IC50 in test [1] is 583 nM; in test [2] (Homo sapiens, HeLa) it was 901 nM.

Take `C[C@@](O)(c1ccc(-c2nc([C@@H]3CC[C@H]4CCC(=O)N4C3)n3ccnc(N)c23)cc1)c1cccc(OC(F)(F)F)c1` [Example 57, (6R,8aS)-6-[8-amino-1-(4-{(1R)-1-hydroxy-1-[3-(trifluoromethoxy)phenyl]ethyl}phenyl)imidazo [1,5-a]pyrazin-3-yl]hexahydroindolizin-3(2H)-one]: the IC50 in test [1] was determined as 0.88 nM; in test [2] (Homo sapiens, HeLa), 3320 nM.

Consider `C[C@](O)(c1ccc(-c2nc([C@@H]3CC[C@H]4CCC(=O)N4C3)n3ccnc(N)c23)cc1)c1cccc(-c2ccccc2)c1` [Example 58, (6R,8aS)-6-(8-amino-1-{4-[(1S)-1-biphenyl-3-yl-1-hydroxyethyl]phenyl}imidazo[1,5-a]pyrazin-3-yl)hexahydroindolizin-3(2H)-one], for which the IC50 in test [1] is 63.1 nM; in test [2] (Homo sapiens, HeLa), 450 nM.

`C[C@@](O)(c1ccc(-c2nc([C@@H]3CC[C@H]4CCC(=O)N4C3)n3ccnc(N)c23)cc1)c1cccc(-c2ccccc2)c1` [Example 59, (6R,8aS)-6-(8-amino-1-{4-[(1R)-1-biphenyl-3-yl-1-hydroxyethyl]phenyl}imidazo[1,5-a]pyrazin-3-yl)hexahydroindolizin-3(2H)-one]: the IC50 in test [1] stood at 0.93 nM; in test [2] (Homo sapiens, HeLa), 1250 nM.

Regarding `CC(O)(c1cccc(C(F)(F)F)c1)c1ccc(-c2nc([C@@H]3CC[C@H]4CCC(=O)N4C3)n3ccnc(N)c23)cc1F` (stereo partly drawn) [Example 60, (6R,8aS)-6-[8-amino-1-(3-fluoro-4-{1-hydroxy-1-[3-(trifluoromethyl)phenyl]ethyl}phenyl)imidazo [1,5-a]pyrazin-3-yl]hexahydroindolizin-3(2H)-one], the figures for the IC50 in test [1] and in test [2] were 36.7 nM and 3360 nM, respectively.

Turning to `CCC(O)(c1ccc(-c2nc([C@@H]3CC[C@H]4CCC(=O)N4C3)n3ccnc(N)c23)cc1)c1cccc(C(F)(F)F)c1` (stereo partly drawn) [Example 61, (6R,8aS)-6-[8-amino-1-(4-{1-hydroxy-1-[3-(trifluoromethyl)phenyl]propyl}phenyl)imidazo [1,5-a]pyrazin-3-yl]hexahydroindolizin-3(2H)-one], the IC50 in test [1] worked out at 72 nM; in test [2] it was 1710 nM.

One may read the IC50 as the concentration that inhibits the measured activity by half.
